Earlier results on 1 compound are cited in patent US5420016A, “Test device and kit for detecting helicobacter pylori” (Serim Research Corporation, priority 1994, dated 1995).

The data set has as its target Urease from H. pylori (Helicobacter pylori, UniProt P69996). To be noted: read-out: Michaelis constant (urea); substrate urea; from Dunn, et al., J. Biol. Chem., 265:9464-9 (1990).

Sequence of Urease from H. pylori (P69996 whole entry): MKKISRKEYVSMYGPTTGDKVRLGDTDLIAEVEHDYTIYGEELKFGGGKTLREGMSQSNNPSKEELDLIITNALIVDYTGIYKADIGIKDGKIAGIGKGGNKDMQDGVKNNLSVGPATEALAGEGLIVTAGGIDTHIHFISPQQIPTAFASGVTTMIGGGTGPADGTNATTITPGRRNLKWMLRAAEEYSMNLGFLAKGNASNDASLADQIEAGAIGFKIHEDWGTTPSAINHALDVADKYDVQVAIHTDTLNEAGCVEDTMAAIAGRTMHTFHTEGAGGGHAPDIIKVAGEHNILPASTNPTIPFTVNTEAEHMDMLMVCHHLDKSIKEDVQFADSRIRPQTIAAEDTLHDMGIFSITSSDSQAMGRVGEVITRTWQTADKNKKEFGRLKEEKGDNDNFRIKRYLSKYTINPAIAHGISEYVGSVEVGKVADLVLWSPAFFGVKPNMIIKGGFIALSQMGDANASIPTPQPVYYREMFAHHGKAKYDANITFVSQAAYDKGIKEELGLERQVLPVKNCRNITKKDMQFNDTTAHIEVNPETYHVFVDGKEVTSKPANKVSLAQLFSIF
Sequence of Urease from H. pylori (P14916 whole entry, further chain): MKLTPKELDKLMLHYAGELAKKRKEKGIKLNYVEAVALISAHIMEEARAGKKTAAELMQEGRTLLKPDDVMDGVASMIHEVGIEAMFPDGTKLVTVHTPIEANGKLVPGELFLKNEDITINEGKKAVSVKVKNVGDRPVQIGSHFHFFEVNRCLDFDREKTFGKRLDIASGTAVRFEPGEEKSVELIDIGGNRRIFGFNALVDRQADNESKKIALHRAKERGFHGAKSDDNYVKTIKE

Turning to `NC(N)=O` [urea], the Km is 300 µM.
